Experiment [1] concerns Entercoccus faecalis 2041. Kind of experiment: MIC, standard broth micro-dilution assay. It is filed as cell-based. How it is done: (§1) The formula I compounds have in vitro and in vivo activity against Gram-positive pathogenic bacteria. The MIC's were determined using a standard broth micro-dilution assay.
In experiment [2] the test system is Entercoccus gallinarum 245. As to the kind of experiment: MIC, standard broth micro-dilution assay. It is filed as cell-based. On the procedure:
as §1

As a reminder, the MIC is the least concentration at which growth counts as inhibited.

≈ marks a conversion by molar mass, not a printed value.

`CNC(CC(C)C)C(=O)NC1C(=O)NC(CC(N)=O)C(=O)NC2C(=O)NC3C(=O)NC(C(=O)NC(C(=O)O)c4cc(O)cc(O)c4-c4cc3ccc4O)C(OC3CC(C)(N)C(O)C(C)O3)c3ccc(c(Cl)c3)Oc3cc2cc(c3OC2OC(CO)C(O)C(O)C2OC2CC(C)(NCCCCCCc3ccccc3)C(O)C(C)O2)Oc2ccc(cc2Cl)C1O` (stereo not drawn) [Compound 196, 6-phenylhexyl]: the minimum inhibitory concentration (MIC) in experiment [1] was not above 0.06 µg/mL; in experiment [2] it was 1 µg/mL (≈ 0.571 µM).

Consider `CCCCCC1CCC(c2ccc(CNC3(C)CC(OC4C(Oc5c6cc7cc5Oc5ccc(cc5Cl)C(OC5CC(C)(N)C(O)C(C)O5)C5NC(=O)C(NC(=O)C7NC(=O)C(CC(N)=O)NC(=O)C(NC(=O)C(CC(C)C)NC)C(O)c7ccc(c(Cl)c7)O6)c6ccc(O)c(c6)-c6c(O)cc(O)cc6C(C(=O)O)NC5=O)OC(CO)C(O)C4O)OC(C)C3O)cc2)CC1` (stereo not drawn) [Compound 34, 4-[4-pentylcyclohexyl]benzyl], for which the MIC in experiment [1] was determined as 8 µg/mL (≈ 4.36 µM); in experiment [2], 4 µg/mL (≈ 2.18 µM).

Regarding `CNC(CC(C)C)C(=O)NC1C(=O)NC(CC(N)=O)C(=O)NC2C(=O)NC3C(=O)NC(C(=O)NC(C(=O)O)c4cc(O)cc(O)c4-c4cc3ccc4O)C(OC3CC(C)(N)C(O)C(C)O3)c3ccc(c(Cl)c3)Oc3cc2cc(c3OC2OC(CO)C(O)C(O)C2OC2CC(C)(NCc3ccc(CCc4ccccc4)cc3)C(O)C(C)O2)Oc2ccc(cc2Cl)C1O` (stereo not drawn) [Compound 100, 4-[(2-phenyl)ethyl]benzyl], the results for the MIC in experiment [1] and in experiment [2] were not above 0.06 µg/mL and 2 µg/mL (≈ 1.12 µM), respectively.

Take `CNC(CC(C)C)C(=O)NC1C(=O)NC(CC(N)=O)C(=O)NC2C(=O)NC3C(=O)NC(C(=O)NC(C(=O)O)c4cc(O)cc(O)c4-c4cc3ccc4O)C(OC3CC(C)(N)C(O)C(C)O3)c3ccc(c(Cl)c3)Oc3cc2cc(c3OC2OC(CO)C(O)C(O)C2OC2CC(C)(NCc3ccc4c(c3)CCc3ccccc3-4)C(O)C(C)O2)Oc2ccc(cc2Cl)C1O` (stereo not drawn) [Compound 220]: the minimal inhibitory concentration (MIC) in experiment [1] is not above 0.06 µg/mL; in experiment [2], 0.5 µg/mL (≈ 0.28 µM).

On to `CNC(CC(C)C)C(=O)NC1C(=O)NC(CC(N)=O)C(=O)NC2C(=O)NC3C(=O)NC(C(=O)NC(C(=O)O)c4cc(O)cc(O)c4-c4cc3ccc4O)C(OC3CC(C)(N)C(O)C(C)O3)c3ccc(c(Cl)c3)Oc3cc2cc(c3OC2OC(CO)C(O)C(O)C2OC2CC(C)(NCCCCc3ccc(OC)cc3)C(O)C(C)O2)Oc2ccc(cc2Cl)C1O` (stereo not drawn) [Compound 172, 4-[4-methoxyphenyl]butyl], for which the minimum inhibitory concentration (MIC) in experiment [1] was not above 0.06 µg/mL; in experiment [2], 2 µg/mL (≈ 1.14 µM).

As to `CN[C@H](CC(C)C)C(=O)N[C@H]1C(=O)N[C@@H](CC(N)=O)C(=O)N[C@H]2C(=O)N[C@H]3C(=O)N[C@H](C(=O)N[C@H](C(=O)O)c4cc(O)cc(O)c4-c4cc3ccc4O)[C@H](O[C@H]3C[C@](C)(N)[C@@H](O)[C@H](C)O3)c3ccc(c(Cl)c3)Oc3cc2cc(c3O[C@@H]2O[C@H](CO)[C@@H](O)[C@H](O)[C@H]2O[C@H]2C[C@](C)(NCc3ccc(Oc4ccc(Cl)cc4)c([N+](=O)[O-])c3)[C@@H](O)[C@H](C)O2)Oc2ccc(cc2Cl)[C@H]1O` [Compound 94, 4-[4-chlorophenoxy]-3-nitrobenzyl], the MIC was not above 0.06 µg/mL in experiment [1] and 2 µg/mL (≈ 1.08 µM) in experiment [2].

Consider `CNC(CC(C)C)C(=O)NC1C(=O)NC(CC(N)=O)C(=O)NC2C(=O)NC3C(=O)NC(C(=O)NC(C(=O)O)c4cc(O)cc(O)c4-c4cc3ccc4O)C(OC3CC(C)(N)C(O)C(C)O3)c3ccc(c(Cl)c3)Oc3cc2cc(c3OC2OC(CO)C(O)C(O)C2OC2CC(C)(NCc3ccc(OC(C)=O)c(OC)c3)C(O)C(C)O2)Oc2ccc(cc2Cl)C1O` (stereo not drawn) [Compound 99, 4-acetoxy-3-methoxybenzyl], for which the MIC in experiment [2] worked out at 32 µg/mL (≈ 18.1 µM).

On to `CCN(CC)CCOc1ccc(CNC2(C)CC(OC3C(Oc4c5cc6cc4Oc4ccc(cc4Cl)C(OC4CC(C)(N)C(O)C(C)O4)C4NC(=O)C(NC(=O)C6NC(=O)C(CC(N)=O)NC(=O)C(NC(=O)C(CC(C)C)NC)C(O)c6ccc(c(Cl)c6)O5)c5ccc(O)c(c5)-c5c(O)cc(O)cc5C(C(=O)O)NC4=O)OC(CO)C(O)C3O)OC(C)C2O)cc1` (stereo not drawn) [Compound 83, 4-[2-[N,N-diethylamino]ethoxy]benzyl], for which the minimum inhibitory concentration (MIC) in experiment [1] and in experiment [2] was 0.5 µg/mL (≈ 0.278 µM) each time.

With `CNC(CC(C)C)C(=O)NC1C(=O)NC(CC(N)=O)C(=O)NC2C(=O)NC3C(=O)NC(C(=O)NC(C(=O)O)c4cc(O)cc(O)c4-c4cc3ccc4O)C(OC3CC(C)(N)C(O)C(C)O3)c3ccc(c(Cl)c3)Oc3cc2cc(c3OC2OC(CO)C(O)C(O)C2OC2CC(C)(NCC3CCC(COCc4ccccc4)CC3)C(O)C(C)O2)Oc2ccc(cc2Cl)C1O` (stereo not drawn) [Compound 239], the minimum inhibitory concentration (MIC) is not above 0.06 µg/mL in experiment [1] and 1 µg/mL (≈ 0.553 µM) in experiment [2].

Molecule `CNC(CC(C)C)C(=O)NC1C(=O)NC(CC(N)=O)C(=O)NC2C(=O)NC3C(=O)NC(C(=O)NC(C(=O)O)c4cc(O)cc(O)c4-c4cc3ccc4O)C(OC3CC(C)(N)C(O)C(C)O3)c3ccc(c(Cl)c3)Oc3cc2cc(c3OC2OC(CO)C(O)C(O)C2OC2CC(C)(NCc3ccc(-c4ccc(O)cc4)cc3)C(O)C(C)O2)Oc2ccc(cc2Cl)C1O` (stereo not drawn) [Compound 20, 4-[4-hydroxyphenyl]benzyl] returned a minimum inhibitory concentration (MIC) in experiment [1] not above 0.06 µg/mL.

In the case of `CNC(CC(C)C)C(=O)NC1C(=O)NC(CC(N)=O)C(=O)NC2C(=O)NC3C(=O)NC(C(=O)NC(C(=O)O)c4cc(O)cc(O)c4-c4cc3ccc4O)C(OC3CC(C)(N)C(O)C(C)O3)c3ccc(c(Cl)c3)Oc3cc2cc(c3OC2OC(CO)C(O)C(O)C2OC2CC(C)(NCc3c(C)c(C)c(C)c(C)c3C)C(O)C(C)O2)Oc2ccc(cc2Cl)C1O` (stereo not drawn) [Compound 73], in experiment [2], the MIC came out at 2 µg/mL (≈ 1.14 µM).

Regarding `CNC(CC(C)C)C(=O)NC1C(=O)NC(CC(N)=O)C(=O)NC2C(=O)NC3C(=O)NC(C(=O)NC(C(=O)O)c4cc(O)cc(O)c4-c4cc3ccc4O)C(OC3CC(C)(N)C(O)C(C)O3)c3ccc(c(Cl)c3)Oc3cc2cc(c3OC2OC(CO)C(O)C(O)C2OC2CC(C)(NCC3CCC4CCCC43)C(O)C(C)O2)Oc2ccc(cc2Cl)C1O` (stereo not drawn) [Compound 190, cis-bicyclo[3.3.0]octane-2-methyl], the MIC in experiment [1] is not above 0.06 µg/mL; in experiment [2], 8 µg/mL (≈ 4.67 µM).

Consider `CNC(CC(C)C)C(=O)NC1C(=O)NC(CC(N)=O)C(=O)NC2C(=O)NC3C(=O)NC(C(=O)NC(C(=O)O)c4cc(O)cc(O)c4-c4cc3ccc4O)C(OC3CC(C)(N)C(O)C(C)O3)c3ccc(c(Cl)c3)Oc3cc2cc(c3OC2OC(CO)C(O)C(O)C2OC2CC(C)(NCc3ccc(OCC(O)CO)cc3)C(O)C(C)O2)Oc2ccc(cc2Cl)C1O` (stereo not drawn) [Compound 177, 4-[2,3-dihydroxypropoxy]benzyl], for which the MIC in experiment [2] came to 16 µg/mL (≈ 9.03 µM).

For the molecule `CCCCCCCCc1ccc(-c2ccc(CNC3(C)CC(OC4C(Oc5c6cc7cc5Oc5ccc(cc5Cl)C(OC5CC(C)(N)C(O)C(C)O5)C5NC(=O)C(NC(=O)C7NC(=O)C(CC(N)=O)NC(=O)C(NC(=O)C(CC(C)C)NC)C(O)c7ccc(c(Cl)c7)O6)c6ccc(O)c(c6)-c6c(O)cc(O)cc6C(C(=O)O)NC5=O)OC(CO)C(O)C4O)OC(C)C3O)cc2)cc1` (stereo not drawn) [Compound 21], the minimal inhibitory concentration (MIC) in experiment [2] was found to be 8 µg/mL (≈ 4.28 µM). This MIC lies about 2-fold lower than the previous one.

On to `CNC(CC(C)C)C(=O)NC1C(=O)NC(CC(N)=O)C(=O)NC2C(=O)NC3C(=O)NC(C(=O)NC(C(=O)O)c4cc(O)cc(O)c4-c4cc3ccc4O)C(OC3CC(C)(N)C(O)C(C)O3)c3ccc(c(Cl)c3)Oc3cc2cc(c3OC2OC(CO)C(O)C(O)C2OC2CC(C)(NCc3ccc([N+](=O)[O-])cc3)C(O)C(C)O2)Oc2ccc(cc2Cl)C1O` (stereo not drawn) [Compound 78, 4-nitrobenzyl], for which the MIC in experiment [1] is not above 0.06 µg/mL.

In experiment [2], `CCOc1cc(CNC2(C)CC(OC3C(Oc4c5cc6cc4Oc4ccc(cc4Cl)C(OC4CC(C)(N)C(O)C(C)O4)C4NC(=O)C(NC(=O)C6NC(=O)C(CC(N)=O)NC(=O)C(NC(=O)C(CC(C)C)NC)C(O)c6ccc(c(Cl)c6)O5)c5ccc(O)c(c5)-c5c(O)cc(O)cc5C(C(=O)O)NC4=O)OC(CO)C(O)C3O)OC(C)C2O)ccc1OCC1CCCCC1` (stereo not drawn) [Compound 105, 4-[cyclohexylmethoxy]-3-ethoxybenzyl] came in with a minimum inhibitory concentration (MIC) of 1 µg/mL (≈ 0.544 µM).

In experiment [2], `CN[C@H](CC(C)C)C(=O)N[C@H]1C(=O)N[C@@H](CC(N)=O)C(=O)N[C@H]2C(=O)N[C@H]3C(=O)N[C@H](C(=O)N[C@H](C(=O)O)c4cc(O)cc(O)c4-c4cc3ccc4O)[C@H](O[C@H]3C[C@](C)(N)[C@@H](O)[C@H](C)O3)c3ccc(c(Cl)c3)Oc3cc2cc(c3O[C@@H]2O[C@H](CO)[C@@H](O)[C@H](O)[C@H]2O[C@H]2C[C@](C)(NCc3ccc(-c4cccc(F)c4)cc3)[C@@H](O)[C@H](C)O2)Oc2ccc(cc2Cl)[C@H]1O` [Compound 92, 4-[3-fluorophenyl]benzyl] showed a minimal inhibitory concentration (MIC) of 2 µg/mL (≈ 1.13 µM). This MIC is about 2-fold higher than that of the molecule before.

In experiment [2], `CNC(CC(C)C)C(=O)NC1C(=O)NC(CC(N)=O)C(=O)NC2C(=O)NC3C(=O)NC(C(=O)NC(C(=O)O)c4cc(O)cc(O)c4-c4cc3ccc4O)C(OC3CC(C)(N)C(O)C(C)O3)c3ccc(c(Cl)c3)Oc3cc2cc(c3OC2OC(CO)C(O)C(O)C2OC2CC(C)(NCc3ccc(-c4ccc(C)cc4)c(C)c3)C(O)C(C)O2)Oc2ccc(cc2Cl)C1O` (stereo not drawn) [Compound 225, 4-[4-methylphenyl]-3-methylbenzyl] displayed an MIC of 4 µg/mL (≈ 2.24 µM).

The molecule `CNC(CC(C)C)C(=O)NC1C(=O)NC(CC(N)=O)C(=O)NC2C(=O)NC3C(=O)NC(C(=O)NC(C(=O)O)c4cc(O)cc(O)c4-c4cc3ccc4O)C(OC3CC(C)(N)C(O)C(C)O3)c3ccc(c(Cl)c3)Oc3cc2cc(c3OC2OC(CO)C(O)C(O)C2OC2CC(C)(NCc3ccc(N4CCOCC4)cc3)C(O)C(C)O2)Oc2ccc(cc2Cl)C1O` (stereo not drawn) [Compound 147, 4-morpholinobenzyl] came in with an MIC in experiment [1] not above 0.06 µg/mL.

In the case of `CNC(CC(C)C)C(=O)NC1C(=O)NC(CC(N)=O)C(=O)NC2C(=O)NC3C(=O)NC(C(=O)NC(C(=O)O)c4cc(O)cc(O)c4-c4cc3ccc4O)C(OC3CC(C)(N)C(O)C(C)O3)c3ccc(c(Cl)c3)Oc3cc2cc(c3OC2OC(CO)C(O)C(O)C2OC2CC(C)(NCc3ccc([S+]([O-])c4ccccc4)cc3)C(O)C(C)O2)Oc2ccc(cc2Cl)C1O` (stereo not drawn) [Compound 159, 4-[phenylsulfinyl]benzyl], in experiment [2], the MIC stood at 8 µg/mL (≈ 4.43 µM).

On to `CNC(CC(C)C)C(=O)NC1C(=O)NC(CC(N)=O)C(=O)NC2C(=O)NC3C(=O)NC(C(=O)NC(C(=O)O)c4cc(O)cc(O)c4-c4cc3ccc4O)C(OC3CC(C)(N)C(O)C(C)O3)c3ccc(c(Cl)c3)Oc3cc2cc(c3OC2OC(CO)C(O)C(O)C2OC2CC(C)(NCc3ccc(N4CCC(C)CC4)cc3)C(O)C(C)O2)Oc2ccc(cc2Cl)C1O` (stereo not drawn) [Compound 129, 4-[4-methyl-1-piperidino]benzyl], for which the minimal inhibitory concentration (MIC) in experiment [1] is not above 0.06 µg/mL.

The values above are taken from patent US5843889A, “Glycopeptide antibiotic derivatives” (Eli Lilly and Company, priority 1997, dated 1998).
